Molecular target: Mitogen-activated protein kinase kinase kinase 9 (Homo sapiens, UniProt P80192)
Assay: Evaluation of Inhibitory Activity of Enzyme Units

Chain of Mitogen-activated protein kinase kinase kinase 9 (P80192 whole entry): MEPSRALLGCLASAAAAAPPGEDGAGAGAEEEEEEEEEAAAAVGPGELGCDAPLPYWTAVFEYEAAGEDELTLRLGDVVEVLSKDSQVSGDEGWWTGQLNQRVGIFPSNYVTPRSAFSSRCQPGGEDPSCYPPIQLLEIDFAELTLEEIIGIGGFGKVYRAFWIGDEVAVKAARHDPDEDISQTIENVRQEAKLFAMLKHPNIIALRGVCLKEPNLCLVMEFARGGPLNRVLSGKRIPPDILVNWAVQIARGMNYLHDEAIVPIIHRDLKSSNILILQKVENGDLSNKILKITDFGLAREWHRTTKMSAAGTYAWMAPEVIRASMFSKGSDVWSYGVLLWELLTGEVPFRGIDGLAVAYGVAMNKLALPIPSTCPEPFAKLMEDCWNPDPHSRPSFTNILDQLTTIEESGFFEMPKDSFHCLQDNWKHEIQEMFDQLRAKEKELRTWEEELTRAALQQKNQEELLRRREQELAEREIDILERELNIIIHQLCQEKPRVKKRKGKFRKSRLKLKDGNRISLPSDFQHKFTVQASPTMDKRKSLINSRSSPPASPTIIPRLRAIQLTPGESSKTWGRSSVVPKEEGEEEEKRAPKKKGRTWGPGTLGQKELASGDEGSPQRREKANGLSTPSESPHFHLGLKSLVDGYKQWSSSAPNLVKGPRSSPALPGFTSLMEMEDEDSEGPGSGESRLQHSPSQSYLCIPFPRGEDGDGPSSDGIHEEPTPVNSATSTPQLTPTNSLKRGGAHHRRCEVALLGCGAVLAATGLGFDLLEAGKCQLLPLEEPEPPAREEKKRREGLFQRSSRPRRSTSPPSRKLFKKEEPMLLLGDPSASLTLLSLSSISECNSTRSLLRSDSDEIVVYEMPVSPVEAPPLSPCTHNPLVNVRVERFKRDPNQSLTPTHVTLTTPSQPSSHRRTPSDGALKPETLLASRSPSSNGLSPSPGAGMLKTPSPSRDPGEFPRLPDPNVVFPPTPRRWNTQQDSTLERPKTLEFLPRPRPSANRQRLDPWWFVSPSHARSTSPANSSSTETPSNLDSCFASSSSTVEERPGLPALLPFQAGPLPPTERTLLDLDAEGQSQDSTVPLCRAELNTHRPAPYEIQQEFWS

With `CCS(=O)(=O)N1CC[C@H](Nc2c(Br)cnc3nc(-c4cc(C)n(-c5ccc(OCCN6CCOCC6)cc5)c4C)[nH]c23)C1` [US12545673, Example 4] the IC50 was 56 nM.
